Laboratory results from patent US8343945B2, “Carriers, formulations, methods for formulating unstable active agents for external application and uses thereof” (Foamix Ltd., priority 2007, dated 2013).
Values belong to the molecule of their own block, whether it stands above or below them.

Columns and labels:
[1] = Minocycline HCl compatibility tests with excipients (colour change, HPLC assay); assay type: physicochemical; conditions: for Compatibility with Minocycline HCL: Summary, compatibility tested after the storage for up to 3 weeks
Method: About 0.5 g foam or pre-foam formulation is dissolved with diluent (65% phosphate buffer: 35% Acetonitrile (ACN)) in a 25 mL volumetric flask. The sample is shaken […] on an inverted shaker stand for 10 min at room temperature. The resulting suspension is centrifuged for 5 minutes at 4000 rpm. The supernatant is separated by vacuum pump and filtered thereafter through a 0.45 μm PTFE+GL filter. The first few drops of the filtrate are discarded. The resultant clear solution layer is analyzed by HPLC using columnRP-8. The content of MCH is calculated against an MCH standard 0.4 mg/mL (concentration). The content of 4-epiminocycline is calculated against MCH standard 0.02 mg/mL (concentration).
Color is tested by visual observation and in particular by comparison to “Pantone® formula guide solid uncoated” colors. […] Minocycline changes color to orange/greenish with oxidation or complexation. These oxidized colors are not desirable. Colors such as 609U/608U/610U are indicative of degradation by the tetracycline antibiotic.
For convenience the excipients were divided into four different groups (I-IV).
Different compositions of hydrophilic and hydrophobic solvents containing minocycline HCl were prepared by weighing the antibiotic in a glass vial and shaking overnight with each solvent investigated (Group I and II).
Mixtures of Minocycline HCl with solid excipients like titanium dioxide, stearyl alcohol, myristyl alcohol etc were prepared by suspending Minocycline HCl in oil with stirring and then adding the solid ingredient as a powder with stirring at room temperature (Group III an IV).
Oxidation of minocycline after the storage at various temperatures was detected by color change. Assay for content of the active pharmaceutical ingredient (API) and degradation product (4-epiminocycline) was determined in some samples.
A series of experiments were performed to evaluate which mixture of components/ingredients were compatible or incompatible with minocycline. Each component or combinations of components were mixed with either 1.1% or 2.2% Minocycline HCl. The glass vials containing the formulations were wrapped in aluminum—and were subjected to a range of temperatures 25° C.; 30° C.; 40° C.; 50 C; for between one week to about 3 weeks. The best results are shown as “compatible no oxidation”.

[2] = Doxycycline Hyclate compatibility test with excipients; assay type: physicochemical; conditions: for Visual inspection after the storage at 25° C.: stored at 25° C. for two weeks; for Visual inspection after the storage at 40° C.: stored at 40° C. for two weeks; for Visual inspection after the storage at 50° C.: stored at 50° C. for two weeks
Method: (§1) Different compositions of hydrophilic and hydrophobic solvents containing Doxycycline Hyclate (Set I and Set II) and Doxycycline Monohydrate (Set III) were prepared by weighing the antibiotic in a glass vial and shaking overnight with each solvent investigated.
Group II included Doxycycline Hyclate mixed with various vehicles with addition of antioxidants like alpha tocopherol, butylated hydroxytolyene (BHT), ascorbic acid.

[3] = Doxycycline Monohydrate compatibility test with excipients; assay type: physicochemical; conditions: for Visual inspection at T-0 / Visual inspection after the storage at 25° C. / Visual inspection after the storage at 40° C. / Visual inspection after the storage at 50° C.: Mixtures of 1.04% w/w of Doxycycline Monohydrate with the ingredient; for Visual inspection after the storage at 25° C.: stored at 25° C. for two weeks; for Visual inspection after the storage at 40° C.: stored at 40° C. for two weeks; for Visual inspection after the storage at 50° C.: stored at 50° C. for two weeks; for Compatibility with Doxycycline Monohydrate: Summary, compatibility tested after the storage for up to 3 weeks; for Compatibility with Doxycycline Monohydrate (text): as summarised in text, 40° and 50° C. for two weeks where stated
Method: as §1, with “investigated. Mixtures of Doxycycline salts 1.04% w/w with solid excipients were prepared in a similar way as for Minocycline HCl.” for “investigated.”
A similar compatibility test was performed on another form of Doxycycline-Doxycycline Monohydrate. Table 17b and Table 18.

[4] = Text: In one or more embodiments of the present disclosure, the foamable composition includes a potent solvent, in addition to or in place of one of the hydrophobic solvents, polar solvents or emollients of the composition. A potent solvent is a solvent other than mineral oil that solubilizes a specific active agent substantially better than a hydrocarbon solvent such as mineral oil or petrolatum.
[5] = Minocycline in hydrophilic vehicles dried with Magnesium Sulphate; assay type: physicochemical; conditions: vehicle dried by the Magnesium Sulfate procedure
Method: A special procedure for drying of water residues was developed. Magnesium Sulphate was added to the glass beaker filled with one of the hydrophilic vehicles. The mixture was stirred during overnight and centrifuged the following morning. Clear supernatant was collected in a separate vessel and stored in a dessicator.
The following were tested using the above procedure: mixtures of Minocycline with PEG 200, PEG 400, glycerol, prolylene glycol, polyethylene glycol.

[6] = cited from earlier work
[7] = Summary, compatibility tested after the storage for up to 3 weeks
[8] = Mixtures of 1.04% w/w of Doxycycline Hyclate with the ingredient
[9] = Group II, mixture with 1.1% of Minocycline HCl, 10 days at 40° C.
[10] = Group II, mixture with 1.1% of Minocycline HCl, T-0

- Compatibility with Minocycline HCL [1]: Yes
- Compatibility with Doxycycline Hyclate [2, 7]: Yes
Molecule: CCCCCCCC/C=C\CCCCCCCCO [Oleyl alcohol]

- Solubility in mineral oil [4]: < 0.001%
Molecule: Cc1cnc(NC(=O)C2=C(O)c3ccccc3S(=O)(=O)N2C)s1 [Meloxicam]

- Compatibility with Minocycline HCl [1]: intensive oxidation
- Compatibility with Minocycline HCL [1]: No
- Compatibility with Doxycycline Hyclate [2, 7]: No
- Compatibility with Doxycycline Monohydrate [3]: No
- Oxidation of Minocycline HCL after dissolution in dried vehicle [5]: oxidized quickly
Molecule: OCC(O)CO [Glycerol]

- Compatibility with Minocycline HCL [1]: Yes
- Compatibility with Doxycycline Hyclate [2, 7]: Yes
Molecule: CCCCCCCCCCCCCCCCCCO [Stearyl alcohol]

The next lines start with the molecule.

Molecule: Sorbitan Monolaurate
- Compatibility with Minocycline HCL [1]: No
- Visual inspection after the storage at 25° C. [2, 8]: Brown solution
- Visual inspection after the storage at 40° C. [2, 8]: Brown solution
- Visual inspection after the storage at 50° C. [2, 8]: Black solution
- Compatibility with Doxycycline Hyclate [2, 7]: No
- Visual inspection at T-0 [3]: Brown mixture
- Visual inspection after the storage at 25° C. [3]: orange solution
- Visual inspection after the storage at 40° C. [3]: Brown solution
- Visual inspection after the storage at 50° C. [3]: brown solution
- Compatibility with Doxycycline Monohydrate [3]: No

Molecule: C[C@H]1c2cccc(O)c2C(=O)C2=C(O)[C@]3(O)C(=O)C(C(N)=O)=C(O)[C@@H](N(C)C)[C@@H]3[C@@H](O)[C@@H]21 [doxycycline monohydrate]
- Solubility in alcohol ([6]; alcohol): sparingly soluble
- Solubility in water ([6]; water): very slightly soluble

Molecule: CO[C@H]1CO[C@H]2[C@@H]1OC[C@H]2OC [Dimethyl Isosorbide]
- Compatibility with Minocycline HCL [1]: No
- Visual inspection at T-0 ([2]; Mixtures of 1.04% w/w of Doxycycline Hyclate with the ingredient, T-0 (two-week study)): yellow solution
- Visual inspection after the storage at 25° C. [2, 8]: Yellow solution
- Visual inspection after the storage at 40° C. [2, 8]: Brownish orange
- Visual inspection after the storage at 50° C. [2, 8]: Orange solution
- Compatibility with Doxycycline Hyclate [2, 7]: No
- Visual inspection at T-0 [3]: yellow solution
- Visual inspection after the storage at 25° C. [3]: orange solution
- Visual inspection after the storage at 40° C. [3]: orange orange
- Visual inspection after the storage at 50° C. [3]: Orange solution
- Compatibility with Doxycycline Monohydrate [3]: No

Molecule: C/C(=C\C(=O)OCCCCCCCCC(=O)O)C[C@@H]1OC[C@H](C[C@@H]2O[C@H]2[C@@H](C)[C@H](C)O)[C@@H](O)[C@H]1O [Mupirocin]
- Solubility in dimethyl isosorbide [4]: more than 1%
- Solubility in glycofurol [4]: more than 1%
- Solubility in mineral oil [4]: < 0.01%
- Solubility in polyethylene glycol 400 (PEG 400) [4]: more than 1%
- Solubility in propylene glycol [4]: more than 1%

Molecule: CCO [Ethanol 95%]
- Compatibility with Minocycline HCl [1]: changed their colour from yellow to orange
- 4-epiminocycline Assay (% w/w), 10 days at 40° C. [1, 9]: 0.39 % w/w
- Minocycline Assay (% w/w), 10 days at 40° C. [1, 9]: 0.52 % w/w
- 4-epiminocycline Assay (% w/w), T-0 [1, 10]: 0.021 % w/w
- Minocycline Assay (% w/w), T-0 [1, 10]: 0.97 % w/w
- Compatibility with Minocycline HCL [1]: No
- Compatibility with Doxycycline Hyclate ([2]; 40° C. and 50° C. for two weeks where stated): stable
- Compatibility with Doxycycline Hyclate [2, 7]: Yes
- Visual inspection after the storage at 25° C. [3]: Brown solution
- Visual inspection after the storage at 40° C. [3]: Brown solution
- Visual inspection after the storage at 50° C. [3]: Black solution
- Compatibility with Doxycycline Monohydrate [3]: No
- Compatibility with Doxycycline Monohydrate (text) [3]: changed their colour from yellow to orange
- Compatibility with Doxycycline Monohydrate (text) ([3]; listed as ethanol 95%): oxidized

Molecule: CCCCCCCCCCCCCCO [Myristyl alcohol]
- Compatibility with Minocycline HCL [1]: Yes
- Compatibility with Doxycycline Hyclate [2, 7]: Yes

Molecule: CC(=O)[C@H]1CC[C@H]2[C@@H]3CCC4=CC(=O)CC[C@]4(C)[C@H]3CC[C@]12C [Progesterone]
- Solubility in mineral oil [4]: < 0.001%
